Laboratory results taken from PubChem BioAssay (NCI).
“And” between values parts separate entries of the source, which are not always exact repeats. Equal values may be shown once.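 Assay format: 96-well plates, 48-hour exposure. GI50 = concentration required for 50% inhibition of growth. At the TGI there is no net growth.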

How the values were obtained:
Assay in all cases: NCI anticancer screen, dose series, 48 h
[1] = test system: OVCAR-4 ovarian
[2] = test system: SF-539 CNS
[3] = test system: A498 renal
[4] = test system: COLO 205 colon
[5] = test system: SK-OV-3 ovarian
[6] = test system: MCF7 breast
[7] = test system: RXF 393 renal
[8] = test system: MOLT-4 leukemia
[9] = test system: UACC-62 melanoma
[10] = test system: T-47D breast

Compound: CCN1CCN(c2nc(NNC(=O)c3ccccc3)nc(N3CCN(C(c4ccccc4)c4ccccc4)CC3)n2)CC1
- GI50 [1]: 5.39 µM
- TGI [1]: 26.1 µM
- GI50 [2]: 1.84 µM
- TGI [2]: 3.45 µM
- GI50 [3]: 6.3 µM
- TGI [3]: 27.1 µM
- GI50 [4]: 1.9 µM
- TGI [4]: 3.83 µM
- GI50 [5]: 5.93 µM
- TGI [5]: 22.1 µM
- GI50 [6]: 1.39 µM
- TGI [6]: 3.46 µM
- GI50 [7]: 2.56 µM
- TGI [7]: 7.57 µM
- GI50 [8]: 2.01 µM
- TGI [8]: 5.42 µM
- GI50 [9]: 1.96 µM
- TGI [9]: 4.29 µM
- GI50 [10]: 3.16 µM
- TGI [10]: 31.2 µM

Compound: O=C(N/N=C/c1ccc(F)cc1)c1ccc(C(F)(F)F)nc1Nc1cccc(C(F)(F)F)c1
- GI50 [1]: 0.339 µM
- TGI [1]: 6.55 µM
- GI50 [2]: 1.82 µM
- TGI [2]: 4.87 µM
- GI50 [3]: 1.59 µM
- TGI [3]: 4.65 µM
- GI50 [4]: 1.56 µM
- TGI [4]: 3.47 µM
- GI50 [5]: 1.17 µM
- TGI [5]: 4.56 µM
- GI50 [6]: 1.47 µM
- TGI [6]: 5.78 µM
- GI50 [7]: 0.457 µM
- TGI [7]: 2.72 µM
- GI50 [8]: 1.57 µM
- TGI [8]: 5.5 µM
- GI50 [9]: 1.66 µM
- TGI [9]: 5.77 µM
- GI50 [10]: 1.02 µM
- TGI [10]: 4.39 µM

Compound: Cc1ccc(C2=C(Cl)C(=O)C(c3ccc(C)cc3)=C(Cl)C2=O)cc1
- TGI [1]: > 100 µM
- TGI [2]: > 100 µM
- TGI [3]: > 100 µM
- TGI [4]: > 100 µM
- TGI [5]: > 100 µM
- TGI [6]: > 100 µM
- TGI [7]: > 100 µM
- TGI [8]: > 100 µM
- TGI [9]: > 100 µM
- TGI [10]: > 100 µM

Compound: COc1ccc(/C(CC2OC(=O)c3ccccc32)=N\NC(N)=O)cc1 (configuration not stated)
- TGI [1]: > 100 µM
- TGI [2]: > 100 µM
- TGI [3]: > 100 µM
- TGI [4]: > 100 µM
- TGI [5]: > 100 µM
- TGI [6]: > 100 µM
- TGI [7]: > 100 µM
- TGI [8]: > 100 µM
- TGI [9]: > 100 µM
- TGI [10]: > 100 µM

Compound: CC1OC(OC2C(O[C@H]3CC[C@@]4(C)C(=CC[C@H]5[C@@H]6C[C@@H]7O[C@]8(CC[C@@H](C)CO8)[C@@H](C)[C@@H]7[C@@]6(C)CC[C@@H]54)C3)OC(CO)C(OC3OC(CO)C(O)C3O)C2O)C(O)C(O)C1O (some centres not stated)
- GI50 [1]: 1.08 µM
- TGI [1]: 2.2 µM and 2.26 µM
- GI50 [2]: 0.343 µM
- TGI [2]: 1.3 µM and 1.08 µM
- GI50 [3]: 0.733 µM
- TGI [3]: 1.62 µM and 1.98 µM
- GI50 [4]: 0.381 µM
- TGI [4]: 1.24 µM and 1.29 µM
- GI50 [5]: 1.29 µM
- TGI [5]: 1.76 µM and 2.55 µM
- GI50 [6]: 1.11 µM
- TGI [6]: 1.52 µM and 2.3 µM
- GI50 [7]: 0.294 µM
- TGI [7]: 1.83 µM and 0.962 µM
- GI50 [8]: 0.187 µM
- TGI [8]: 1.8 µM and 0.412 µM
- GI50 [9]: 0.349 µM
- TGI [9]: 1.5 µM and 1.07 µM
- GI50 [10]: 1.39 µM
- TGI [10]: 2.68 µM

Compound: CCN(CC)CCOc1ccc2c(C)c(C(=O)OC)oc2c1C(=O)/C=C/c1ccc(OC)cc1
- GI50 [1]: 2.43 µM
- TGI [1]: 6.85 µM
- GI50 [2]: 16.3 µM
- TGI [2]: 32.2 µM
- GI50 [3]: 22.8 µM
- TGI [3]: 44.4 µM
- GI50 [4]: 4.03 µM
- GI50 [5]: 4.12 µM
- TGI [5]: 13.8 µM
- GI50 [6]: 2.76 µM
- TGI [6]: > 22.7 µM
- GI50 [7]: 13.8 µM
- TGI [7]: 31.3 µM
- GI50 [8]: 1.54 µM
- TGI [8]: 6.58 µM
- GI50 [9]: 2.24 µM
- TGI [9]: 7.75 µM
- GI50 [10]: 12.9 µM
- TGI [10]: 38.5 µM

Compound: NC(N)=N/N=C/c1c(-c2ccncc2)nc2sc(Cl)cn12
- GI50 [1]: 1.57 µM
- TGI [1]: 6.16 µM
- GI50 [2]: 7.06 µM
- TGI [2]: 13.7 µM
- GI50 [3]: 17.4 µM
- TGI [3]: 41.2 µM
- GI50 [4]: 4.21 µM
- GI50 [5]: 22.4 µM
- TGI [5]: 48.1 µM
- GI50 [6]: 5.19 µM
- TGI [6]: > 94.2 µM
- GI50 [7]: 15.2 µM
- TGI [7]: 33.2 µM
- GI50 [8]: 2.83 µM
- TGI [8]: 7.26 µM
- GI50 [9]: 1.88 µM
- TGI [9]: 4.91 µM
- GI50 [10]: 28.6 µM
- TGI [10]: 56.6 µM

Compound: CC1=C2[C@@H](CC1)[C@]1(C)O[C@@](C3CC3)(C[C@H]1OC(=O)CO)[C@H]2OC(=O)/C=C/c1ccccc1
- GI50 [1]: 14.5 µM
- TGI [1]: 29.2 µM
- GI50 [2]: 16.6 µM
- TGI [2]: 31.6 µM
- GI50 [3]: 0.0998 µM
- TGI [3]: 0.605 µM
- GI50 [4]: 17.9 µM
- TGI [4]: 35.7 µM
- GI50 [5]: 15.6 µM
- TGI [5]: 29.6 µM
- GI50 [6]: 13 µM
- TGI [6]: 31.3 µM
- GI50 [7]: 0.0218 µM
- TGI [7]: 0.858 µM
- GI50 [8]: 15.1 µM
- TGI [8]: 36.9 µM
- GI50 [9]: 14.3 µM
- TGI [9]: 29.4 µM
- GI50 [10]: 12.1 µM
- TGI [10]: 36.6 µM

Compound: Nc1ncnc2c1nc(Cl)n2C1OC(CO)C(O)C1O (configuration not stated)
- TGI [1]: > 100 µM
- TGI [2]: > 94.7 µM
- TGI [3]: > 100 µM
- TGI [4]: > 100 µM
- TGI [5]: > 100 µM
- TGI [6]: > 100 µM
- TGI [7]: 4.29 µM
- TGI [8]: > 100 µM
- TGI [9]: > 100 µM
- TGI [10]: 8.15 µM

Compound: COc1cccc(C2C(C#N)=C(N)Oc3cc4c(cc32)OCO4)c1 (configuration not stated)
- GI50 [1]: 0.457 µM
- TGI [1]: > 100 µM
- GI50 [2]: 0.0401 µM
- TGI [2]: > 33.1 µM
- GI50 [3]: 0.0311 µM
- TGI [3]: 3 µM
- GI50 [4]: 0.0492 µM
- TGI [4]: 0.325 µM
- GI50 [5]: 0.0508 µM
- TGI [5]: 4.71 µM
- GI50 [6]: 0.0351 µM
- TGI [6]: 18.1 µM
- GI50 [7]: 0.029 µM
- TGI [7]: 0.0927 µM
- GI50 [8]: 0.0745 µM
- TGI [8]: 22.6 µM
- GI50 [9]: 0.0505 µM
- TGI [9]: > 53.8 µM
- GI50 [10]: 0.0502 µM
- TGI [10]: 28 µM

Compound: C=C(Cn1c2ccccc2c(=O)c2ccccc21)c1ccc(C(=O)Nc2ccccc2N)cc1
- GI50 [1]: 0.0786 µM
- TGI [1]: 6.06 µM
- GI50 [2]: 3.59 µM
- TGI [2]: > 100 µM
- TGI [3]: > 27.2 µM
- GI50 [4]: 16.2 µM
- TGI [4]: > 100 µM
- GI50 [5]: 5.99 µM
- TGI [5]: > 100 µM
- GI50 [6]: > 100 µM
- TGI [6]: > 100 µM
- GI50 [7]: > 100 µM
- TGI [7]: > 100 µM
- GI50 [8]: 0.767 µM
- TGI [8]: > 26 µM
- GI50 [9]: > 100 µM
- TGI [9]: > 100 µM
- GI50 [10]: 2.8 µM
- TGI [10]: > 80 µM

Compound: N#CCCN(CCC#N)c1ccc(C=Nc2ccc(F)cc2)cc1
- TGI [1]: > 100 µM
- TGI [2]: > 83.2 µM
- TGI [3]: > 100 µM
- TGI [4]: 70.3 µM
- TGI [5]: > 100 µM
- TGI [6]: > 100 µM
- TGI [7]: > 100 µM
- TGI [8]: > 100 µM
- TGI [9]: > 54.2 µM
- TGI [10]: > 100 µM

Compound: COc1cc(/C=C\c2cc(OC)c(OC)c(OC)c2)cc(NS(=O)(=O)c2ccc(Cl)cc2)c1OC
- GI50 [1]: 1.53 µM
- TGI [1]: > 100 µM
- GI50 [2]: 0.303 µM
- TGI [2]: 2.58 µM
- GI50 [3]: 0.179 µM
- TGI [3]: 0.832 µM
- GI50 [4]: 0.253 µM
- TGI [4]: 0.652 µM
- GI50 [5]: 0.449 µM
- TGI [5]: > 100 µM
- GI50 [6]: 0.375 µM
- TGI [6]: > 100 µM
- GI50 [7]: 0.272 µM
- TGI [7]: 1.24 µM
- GI50 [8]: 0.672 µM
- TGI [8]: 31.9 µM
- GI50 [9]: 0.435 µM
- TGI [9]: 36.7 µM
- GI50 [10]: 0.381 µM
- TGI [10]: > 100 µM

Compound: O=c1nc2[nH]c3c(-c4n[nH]c(=O)[nH]c4=O)cccc3c2n[nH]1
- GI50 [1]: > 100 µM
- TGI [1]: > 100 µM
- GI50 [2]: > 100 µM
- TGI [2]: > 100 µM
- GI50 [3]: > 100 µM
- TGI [3]: > 100 µM
- GI50 [4]: > 100 µM
- TGI [4]: > 100 µM
- GI50 [5]: > 100 µM
- TGI [5]: > 100 µM
- GI50 [6]: > 100 µM
- TGI [6]: > 100 µM
- GI50 [7]: > 100 µM
- TGI [7]: > 100 µM
- GI50 [8]: > 100 µM
- TGI [8]: > 100 µM
- GI50 [9]: > 100 µM
- TGI [9]: > 100 µM
- GI50 [10]: > 100 µM
- TGI [10]: > 100 µM

Compound: CCCCC[C@@H](C/C=C/CCC(=O)NC/C(=C/Cl)[C@H]1C(=O)C(C)(C)C(=O)[C@@H](C)[C@@]1(C)O)OC
- GI50 [1]: 20 µM
- TGI [1]: 45.8 µM
- GI50 [2]: 19.7 µM
- TGI [2]: 35.2 µM
- GI50 [3]: 26 µM
- TGI [3]: 55 µM
- GI50 [4]: 18.5 µM
- TGI [4]: 33.6 µM
- GI50 [5]: 30.8 µM
- TGI [5]: 68.7 µM
- GI50 [6]: 19.2 µM
- TGI [6]: 38.8 µM
- GI50 [7]: 17.4 µM
- TGI [7]: 34.2 µM
- GI50 [8]: 21 µM
- TGI [8]: 59.3 µM
- GI50 [9]: 15.6 µM
- TGI [9]: 29.1 µM
- GI50 [10]: 15.4 µM
- TGI [10]: 34.6 µM
